The assay has as its target Programmed cell death 1 ligand/protein 1 (Homo sapiens, UniProt Q15116+Q9NZQ7). The assay can be described thus: PD1-PDL1 HTRF Binding Activity Assay. Here is the method: 1) Pre-diluted compound solution, 4 μL of Tag1-PD-L1 and 4 μL of Tag2-PD1 were added to each well of a 384-well plate:2) After the mixture was incubated at room temperature for 15 min, 5 μL of anti-Tag1-Eu3+ antibody and 5 μL of anti-Tag2-XL665 antibody were then added;3) After incubated for 2 hrs at room temperature or overnight at 4° C., plates were read on Envision of Pelkin Elmer; and readings at 665 nm and 620 nm were recorded, and the ratio of the two readings was taken as a reading for each well;4) The reading of each well after compound treatment was compared with the reading of DMSO treated wells to obtain the percent inhibition of the compound;5) IC50 values of compounds and positive compounds of the examples of the present invention were determined by non-linear regression analysis of percent inhibition at different compound concentrations.

Programmed cell death 1 ligand/protein 1, sequence (Q9NZQ7 whole entry): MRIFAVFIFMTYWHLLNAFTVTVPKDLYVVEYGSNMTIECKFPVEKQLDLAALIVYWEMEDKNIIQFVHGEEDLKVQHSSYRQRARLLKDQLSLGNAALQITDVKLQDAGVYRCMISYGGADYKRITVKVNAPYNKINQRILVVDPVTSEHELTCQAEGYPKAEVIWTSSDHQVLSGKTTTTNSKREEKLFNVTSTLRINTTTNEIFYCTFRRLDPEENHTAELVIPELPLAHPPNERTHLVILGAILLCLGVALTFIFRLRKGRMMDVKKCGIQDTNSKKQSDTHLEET
Programmed cell death 1 ligand/protein 1, sequence (Q15116 whole entry): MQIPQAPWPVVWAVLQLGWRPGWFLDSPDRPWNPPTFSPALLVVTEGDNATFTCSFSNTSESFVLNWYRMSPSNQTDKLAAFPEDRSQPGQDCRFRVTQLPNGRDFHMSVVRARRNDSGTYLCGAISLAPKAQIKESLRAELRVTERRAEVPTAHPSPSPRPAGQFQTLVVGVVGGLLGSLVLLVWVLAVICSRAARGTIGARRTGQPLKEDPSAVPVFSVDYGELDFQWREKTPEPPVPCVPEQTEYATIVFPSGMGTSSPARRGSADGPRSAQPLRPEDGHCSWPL

In turn, `CC(C)N1CCc2cc(C(=O)Nc3cccc(-c4cccc(NC(=O)c5cc(C6CC6)c(CN6CCCC[C@H]6C(=O)O)cn5)c4Cl)c3Cl)ncc2C1` [US12552811, Example 32] showed an IC50 of 0.661 nM.

Source of the values: BindingDB's records for patent US12552811 (Abbisko Therapeutics Co., 2026).
